Reference: US11753418B2, “Compounds for the modulation of Myc activity” (Syros Pharmaceuticals, Inc., priority 2015, dated 2023)

The compounds below were run against T1, c-Myc/Max/Ebox DNA (Homo sapiens, UniProt P01106) (assay: c-Myc/Max/Ebox DNA AlphaScreen Assay). Details: free c-Myc 20 nM, his6-Max 5 nM, biotinylated Ebox oligo 10 nM, 2 hour incubation.
T1 construct: his6 (cleaved yes)
T1 sequence (P01106 whole entry): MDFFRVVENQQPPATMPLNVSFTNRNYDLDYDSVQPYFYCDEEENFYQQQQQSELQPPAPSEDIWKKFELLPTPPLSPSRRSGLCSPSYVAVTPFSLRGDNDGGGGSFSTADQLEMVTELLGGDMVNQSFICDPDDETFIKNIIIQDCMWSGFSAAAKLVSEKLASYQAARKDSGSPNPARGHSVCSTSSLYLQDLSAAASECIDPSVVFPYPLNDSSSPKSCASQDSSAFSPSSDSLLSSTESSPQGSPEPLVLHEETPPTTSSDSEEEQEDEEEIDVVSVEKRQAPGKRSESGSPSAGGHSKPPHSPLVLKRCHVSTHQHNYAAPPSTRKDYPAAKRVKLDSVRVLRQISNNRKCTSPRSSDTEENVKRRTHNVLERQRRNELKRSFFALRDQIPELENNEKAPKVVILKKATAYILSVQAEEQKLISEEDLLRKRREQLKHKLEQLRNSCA
Format: binding
Experimental: Compounds of the invention were assayed for c-Myc/Max/EBox activity as described in the following protocol. Human his6-c-Myc and his6-Max were used with biotinylated DNA containing a single Ebox sequence (biotin[…]) purchased from MWG Operon. Free c-Myc was generated from his6-c-Myc through thrombin cleavage of the his6 tag. For 384-well plate assays, 10 μL of a 2× solution of free c-Myc (20 nM final), Ni^2+ coated Acceptor Beads (25 μg/ml final), and biotinylated Ebox oligo (10 nM final) were added to 384-well plates with a Biotek EL406 liquid handler. 50 nL of compounds from stock plates were added by pin transfer using a Janus Workstation (PerkinElmer), allowing the compounds to interact with c-Myc prior to c-Myc binding with Max. In the current assay, DMSO was not allowed to exceed 2% v/v of the assay. 10 μl of 2× master mix containing streptavidin-coated donor beads (25 μg/ml final) and his6-Max (5 nM) were added. AlphaScreen measurements were performed on an Envision plate reader (PerkinElmer) utilizing the manufacturer's protocol.
Both master mixes were made in room temperature assay buffer (50 mM HEPES, 150 mM NaCl, 0.2% w/v BSA, 0.02% w/v Tween20, 40 μg/ml glycogen, 500 μM DTT, pH 8.0, wherein both DTT and glycogen were added fresh). Alpha beads were added to respective master solutions. All subsequent steps were performed in low light conditions. Solution 1: 2× solution of components with final concentrations of c-Myc Ni-coated Acceptor Beads (25 μg/ml), and biotinylated Ebox oligo (10 nM). Solution 2: 2× solution of streptavidin-coated donor beads (25 μg/ml final) and his6-Max […]. Solution 1 was added to 384-well plate (AlphaPlate-384, PerkinElmer) with Biotek EL406 liquid handler and the plates were centrifuged very briefly. 50 nL of compounds from stock plates were added by pin transfer using a Janus Workstation. Solution 2 (10 μL) was added with the liquid handler. Plates were sealed with foil to block light exposure and prevent evaporation. Plates were very briefly centrifuged followed by 2 hour incubation. AlphaScreen measurements were performed on an Envision 2104 utilizing the manufacturer's protocol. Excitation was at 680 nm for donor bead release of singlet oxygen and emission was read with a bandpass filter from 520-620 nm. Glycogen: Roche Diagnostics #10901393001. Plate 1536: Perkin Elmer, 6004350. Plate 384: Perkin Elmer, 6005350. Nickel-His Alpha Beads: 6760619R. The data from this assay are summarized in Table 3 below (Myc/Max/DNA Activity).
`CC1CN(CCC(=O)Nc2sc3c(c2-c2nc4cnccc4s2)CCNC3)CC(=O)N1` (centres unmarked) [Compound 144] showed an IC50 of 500 to 5000 nM.
Work on `CC1CC1NCCC(=O)Nc1sc2c(c1-c1nc3cnccc3s1)CCNC2` (centres unmarked) [Compound 145] yielded an IC50 of under 500 nM.
Work on `O=C(CCNC1CNCC1O)Nc1sc2c(c1-c1nc3cnccc3s1)CCNC2` (centres unmarked) [Compound 146] yielded an IC50 of under 500 nM.
In the case of `O=C(CCNC1CCOC1)Nc1sc2c(c1-c1nc3cnccc3s1)CCNC2` (centres unmarked) [Compound 147], the IC50 is reported as under 500 nM.
Compound `O=C(CCN[C@H]1COC[C@@H]1O)Nc1sc2c(c1-c1nc3cnccc3s1)CCNC2` [Compound 148] has an IC50 of under 500 nM.
`O=C(CCN1CCC(OC2CCC2)CC1)Nc1sc2c(c1-c1nc3cnccc3s1)CCNC2` [Compound 149] gave an IC50 of under 500 nM.
For `CN(C)[C@H]1CCN(CCC(=O)Nc2sc3c(c2-c2nc4cnccc4s2)CCNC3)C1` [Compound 150], the IC50 was under 500 nM.
Compound `COC1(C)CCN(CCC(=O)Nc2sc3c(c2-c2nc4cnccc4s2)CCNC3)CC1` [Compound 151] has an IC50 of under 500 nM.
`COCC1CCCCN1CCC(=O)Nc1sc2c(c1-c1nc3cnccc3s1)CCNC2` (centres unmarked) [Compound 152] showed an IC50 of under 500 nM.
In the case of `O=C(CCN1C[C@H]2CN[C@H]2C1)Nc1sc2c(c1-c1nc3cnccc3s1)CCNC2` [Compound 154], the IC50 is reported as under 500 nM.
`O=C(CCN1CC[C@@H]2NCC[C@@H]21)Nc1sc2c(c1-c1nc3cnccc3s1)CCNC2` [Compound 155] was tested, and the IC50 was under 500 nM.
`Cc1cc(CC(C)NCCC(=O)Nc2sc3c(c2-c2nc4cnccc4s2)CCNC3)on1` (centres unmarked) [Compound 156] was tested, and the IC50 was under 500 nM.
Work on `CN(CCC(=O)Nc1sc2c(c1-c1nc3cnccc3s1)CCNC2)Cc1cnc(Cl)s1` [Compound 157] yielded an IC50 of 500 to 5000 nM.
Work on `O=C(CCNCCN1CCCCC1=O)Nc1sc2c(c1-c1nc3cnccc3s1)CCNC2` [Compound 158] yielded an IC50 of under 500 nM.
`Cc1nc(C)c(CNCCC(=O)Nc2sc3c(c2-c2nc4cnccc4s2)CCNC3)s1` [Compound 159] was tested, and the IC50 was 500 to 5000 nM.
For `O=C(CCNCc1cscn1)Nc1sc2c(c1-c1nc3cnccc3s1)CCNC2` [Compound 160], the IC50 was under 500 nM.
Compound `CN(C)C1CN(CCC(=O)Nc2sc3c(c2-c2nc4cnccc4s2)CCNC3)C1` [Compound 161] has an IC50 of under 500 nM.
Compound `CN1CCN(CCC(=O)Nc2sc3c(c2-c2nc4cnccc4s2)CCNC3)CC1=O` [Compound 162] has an IC50 of 500 to 5000 nM.
`O=C(CCN1CC2CCC(C1)O2)Nc1sc2c(c1-c1nc3cnccc3s1)CCNC2` [Compound 163] gave an IC50 of 500 to 5000 nM.
In the case of `CC1(C)CCCN1CCC(=O)Nc1sc2c(c1-c1nc3cnccc3s1)CCNC2` [Compound 164], the IC50 is reported as under 500 nM.
With `O=C(CCNC1CCNCC1)Nc1sc2c(c1-c1nc3cnccc3s1)CCNC2` [Compound 165] the IC50 was under 500 nM.
In the case of `O=C(CCNCc1ccn[nH]1)Nc1sc2c(c1-c1nc3cnccc3s1)CCNC2` [Compound 166], the IC50 is reported as under 500 nM.
In the case of `O=C(CCNC1CC(O)C1)Nc1sc2c(c1-c1nc3cnccc3s1)CCNC2` (centres unmarked) [Compound 167], the IC50 is reported as under 500 nM.
In the case of `COC(=O)CCCNCCC(=O)Nc1sc2c(c1-c1nc3cnccc3s1)CCNC2` [Compound 168], the IC50 is reported as under 500 nM.
For `COCC1CCCN1CCC(=O)Nc1sc2c(c1-c1nc3cnccc3s1)CCNC2` (centres unmarked) [Compound 169], the IC50 was under 500 nM.
For `O=C(CCN1CCCOCC1)Nc1sc2c(c1-c1nc3cnccc3s1)CCNC2` [Compound 170], the IC50 was under 500 nM.
`Cc1ccsc1CNCCC(=O)Nc1sc2c(c1-c1nc3cnccc3s1)CCNC2` [Compound 171] was tested, and the IC50 was under 500 nM.
Compound `O=C(CCN[C@@H]1C2CCC1NC2)Nc1sc2c(c1-c1nc3cnccc3s1)CCNC2` (some centres unmarked) [Compound 173] has an IC50 of under 500 nM.
`O=C(CCNCC12CC(CN1)C2)Nc1sc2c(c1-c1nc3cnccc3s1)CCNC2` [Compound 174] was tested, and the IC50 was under 500 nM.
Compound `O=C(CCNCC1CCCC1)Nc1sc2c(c1-c1nc3cnccc3s1)CCNC2` [Compound 175] has an IC50 of under 500 nM.
With `O=C(CCN1CCc2[nH]ncc2C1)Nc1sc2c(c1-c1nc3cnccc3s1)CCNC2` [Compound 178] the IC50 was under 500 nM.
With `CC(C)c1nc(CNCCC(=O)Nc2sc3c(c2-c2nc4cnccc4s2)CCNC3)no1` [Compound 179] the IC50 was 500 to 5000 nM.
`Cc1nc(CNCCC(=O)Nc2sc3c(c2-c2nc4cnccc4s2)CCNC3)no1` [Compound 180] was tested, and the IC50 was under 500 nM.
Work on `O=C(CCNCc1ncon1)Nc1sc2c(c1-c1nc3cnccc3s1)CCNC2` [Compound 181] yielded an IC50 of under 500 nM.
`Cc1nc(CN(C)CCC(=O)Nc2sc3c(c2-c2nc4cnccc4s2)CCNC3)no1` [Compound 182] showed an IC50 of 500 to 5000 nM.
In the case of `Cc1ccc(CNCCC(=O)Nc2sc3c(c2-c2nc4cnccc4s2)CCNC3)s1` [Compound 185], the IC50 is reported as under 500 nM.
`Cc1ncc(CNCCC(=O)Nc2sc3c(c2-c2nc4cnccc4s2)CCNC3)s1` [Compound 186] was tested, and the IC50 was 500 to 5000 nM.
`N[C@@H]1[C@H]2CN(CCC(=O)Nc3sc4c(c3-c3nc5cnccc5s3)CCNC4)C[C@@H]12` [Compound 187] was tested, and the IC50 was under 500 nM.
For `O=C(CCNCC1CCNC1)Nc1sc2c(c1-c1nc3cnccc3s1)CCNC2` (centres unmarked) [Compound 188], the IC50 was under 500 nM.
In the case of `O=C(CCNCC1CCOCC1)Nc1sc2c(c1-c1nc3cnccc3s1)CCNC2` [Compound 189], the IC50 is reported as under 500 nM.
Compound `Cc1cc(CNCCC(=O)Nc2sc3c(c2-c2nc4cnccc4s2)CCNC3)no1` [Compound 191] has an IC50 of 500 to 5000 nM.
Compound `C[C@@H](NCCC(=O)Nc1sc2c(c1-c1nc3cnccc3s1)CCNC2)c1cnc2ccccn12` [Compound 192] has an IC50 of under 500 nM.
Work on `O=C(CCNCCN1CCNCC1)Nc1sc2c(c1-c1nc3cnccc3s1)CCNC2` [Compound 193] yielded an IC50 of under 500 nM.
In the case of `O=C(CCN1CC(F)(F)C1)Nc1sc2c(c1-c1nc3cnccc3s1)CCNC2` [Compound 194], the IC50 is reported as 500 to 5000 nM.
For `NC1CC(NCCC(=O)Nc2sc3c(c2-c2nc4cnccc4s2)CCNC3)C1` (centres unmarked) [Compound 195], the IC50 was under 500 nM.
`CC1(C#N)CN(CCC(=O)Nc2sc3c(c2-c2nc4cnccc4s2)CCNC3)C1` [Compound 196] gave an IC50 of 500 to 5000 nM.
Compound `CC(NCCC(=O)Nc1sc2c(c1-c1nc3cnccc3s1)CCNC2)c1nc2ccccc2[nH]1` (centres unmarked) [Compound 197] has an IC50 of 5000 to 25000 nM.
For `O=C(CCN1CCn2nccc2C1)Nc1sc2c(c1-c1nc3cnccc3s1)CCNC2` [Compound 198], the IC50 was 500 to 5000 nM.
With `Cc1cccc2c1CCN(CCC(=O)Nc1sc3c(c1-c1nc4cnccc4s1)CCNC3)C2` [Compound 199] the IC50 was 500 to 5000 nM.
Work on `O=C(CCNCc1[nH]nc2c1CNC2)Nc1sc2c(c1-c1nc3cnccc3s1)CCNC2` [Compound 200] yielded an IC50 of under 500 nM.
For `CC(NCCC(=O)Nc1sc2c(c1-c1nc3cnccc3s1)CCNC2)c1ncc[nH]1` (centres unmarked) [Compound 201], the IC50 was under 500 nM.
`NC(=O)C1(CNCCC(=O)Nc2sc3c(c2-c2nc4cnccc4s2)CCNC3)CCOCC1` [Compound 202] showed an IC50 of under 500 nM.
With `O=C(CCN[C@H]1CC[C@@H](O)C1)Nc1sc2c(c1-c1nc3cnccc3s1)CCNC2` [Compound 204] the IC50 was under 500 nM.
Compound `CN(CCC(=O)Nc1sc2c(c1-c1nc3cnccc3s1)CCNC2)Cc1nc2ccccc2s1` [Compound 205] has an IC50 of 5000 to 25000 nM.
`O=C(CCNC[C@H]1CC2(CCNCC2)CO1)Nc1sc2c(c1-c1nc3cnccc3s1)CCNC2` [Compound 207] showed an IC50 of under 500 nM.
For `O=C(CCN1CCC2OCCC2C1)Nc1sc2c(c1-c1nc3cnccc3s1)CCNC2` (centres unmarked) [Compound 208], the IC50 was under 500 nM.
`O=C(CCNCc1noc2c1CNCC2)Nc1sc2c(c1-c1nc3cnccc3s1)CCNC2` [Compound 209] was tested, and the IC50 was 500 to 5000 nM.
`O=C(CCNCC1(O)CC1)Nc1sc2c(c1-c1nc3cnccc3s1)CCNC2` [Compound 210] was tested, and the IC50 was under 500 nM.
Work on `O=C(CCN[C@H]1[C@@H]2CNC[C@@H]21)Nc1sc2c(c1-c1nc3cnccc3s1)CCNC2` [Compound 211] yielded an IC50 of under 500 nM.
`O=C(CCNCc1cnc2ccccn12)Nc1sc2c(c1-c1nc3cnccc3s1)CCNC2` [Compound 212] was tested, and the IC50 was 5000 to 25000 nM.
With `O=C(CCN1CCC2COCC2C1)Nc1sc2c(c1-c1nc3cnccc3s1)CCNC2` (centres unmarked) [Compound 213] the IC50 was under 500 nM.
With `CN(CCC(=O)Nc1sc2c(c1-c1nc3cnccc3s1)CCNC2)Cc1ccc2[nH]ccc2c1` [Compound 214] the IC50 was under 500 nM.
`O=C(CCNCc1ncc[nH]1)Nc1sc2c(c1-c1nc3cnccc3s1)CCNC2` [Compound 215] gave an IC50 of under 500 nM.
In the case of `O=C(CCNC1CC1)Nc1sc2c(c1-c1nc3cnccc3s1)CCNC2` [Compound 221, 3-(cyclopropylamino)-N-(3-(thiazolo[4,5-c]pyridin-2-yl)-4,5,6,7-tetrahydrothieno[2,3-c]pyridin-2-yl)propanamide], the IC50 is reported as under 500 nM.
In the case of `O=C(CCNC1CCC1)Nc1sc2c(c1-c1nc3cnccc3s1)CCNC2` [Compound 222, 3-(cyclobutylamino)-N-(3-(thiazolo[4,5-c]pyridin-2-yl)-4,5,6,7-tetrahydrothieno[2,3-c]pyridin-2-yl)propanamide], the IC50 is reported as under 500 nM.
